Where two headings read alike, the source gives them in different places.
How the values were obtained:
Assay type in all cases: cell-based, human
HTT mRNA = experiment: RT-qPCR splicing assay, HTT canonical junction (CJ) and alternative junction (AJ) mRNA; details: Homo sapiens; for AC50: increase in HTT alternative junction (AJ) mRNA, read-out: HTT AJ AC50
Procedure, shortened: (§1)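 24 h treatment, 37 °C/5% CO2; A673 or K562; 11-pt 3-fold series, top 10 uM final; DMSO ≤0.25%. Cell lysis with DNase I, then 1-step RT-qPCR. Housekeeping normalization: PPIA (A673), GAPDH or GUSB (K562).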

MYB mRNA = experiment: RT-qPCR splicing assay, MYB canonical junction (CJ) and alternative junction (AJ) mRNA; details: Homo sapiens; for AC50: increase in MYB alternative junction (AJ) mRNA, read-out: MYB AJ AC50
Procedure, shortened: as §1

HTT = experiment: HiBiT protein abundance assay, HTT HiBiT K562 cell line; details: HiBiT K562 cell line, 24 hours, top dose 10 μM; read-out: Effect on protein abundance, HTT (IC50 category)
Procedure, shortened: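 K562 knock-in lines with endogenous HiBiT-tagged target, 10,000 cells/well in IMDM + FBS, treated 24 h at 37° C with 10-point 3-fold dilutions (top 10 μM final; DMSO ≤0.25%). Lytic Nano-Glo HiBiT luminescence normalized to untagged K562 baseline and DMSO controls; IC50 = concentration giving 50% abundance via four-parameter fit.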

[1] = decrease in HTT canonical junction (CJ) mRNA, RT-qPCR, read-out: HTT CJ IC50
[2] = Table 5 panel, canonical junction qPCR, compound concentration having 50% response in CJ decrease, read-out: HTT IC50 (decrease in CJ mRNA levels)
[3] = Table 5 panel, canonical junction qPCR, compound concentration having 50% response in CJ decrease, read-out: MYB IC50 (decrease in CJ mRNA levels)
[4] = decrease in MYB canonical junction (CJ) mRNA, RT-qPCR, read-out: MYB CJ IC50
[5] = canonical junction qPCR panel, Table 5, read-out: HTT (decrease in CJ mRNA levels, IC50)
[6] = canonical junction qPCR panel, Table 5, read-out: MYB (decrease in CJ mRNA levels, IC50)

SMILES | IC50 (HTT mRNA; [1]) | AC50 (HTT mRNA; RT-qPCR) | IC50 (HTT mRNA; [2]) | IC50 (MYB mRNA; [3]) | IC50 (MYB mRNA; [4]) | AC50 (MYB mRNA; RT-qPCR) | IC50 (HTT) | IC50 (HTT mRNA; [5]) | IC50 (MYB mRNA; [6])
Cn1cc2cc(-c3ccc4c(c3)CCN(C3CCNCC3)C4=O)cc(F)c2n1 [Compound 225] | > 10000 nM | > 10000 nM | > 10000 nM | > 10000 nM | > 10000 nM | > 10000 nM | 1000 to 10000 nM |  | 
Cc1nc2c(F)cc(-c3ccc4c(c3)CCN(C3CCNCC3)C4=O)cc2s1 [Compound 226] | > 10000 nM | > 10000 nM | > 10000 nM | 1000 to 10000 nM | 1000 to 10000 nM | 1000 to 10000 nM | 1000 to 10000 nM |  | 
Cc1cn2cc(-c3ccc4c(=O)n(C5CCN(C)CC5)cnc4c3F)cc(F)c2n1 [Compound 227] | 1000 to 10000 nM | 1000 to 10000 nM | 1000 to 10000 nM | 1000 to 10000 nM | 1000 to 10000 nM | 1000 to 10000 nM | 1000 to 10000 nM |  | 
Cc1cn2cc(-n3cnc4cc(N5CCNCC5)ccc4c3=O)cc(F)c2n1 [Compound 228] | 100 to 1000 nM | 100 to 1000 nM | 100 to 1000 nM | 100 to 1000 nM | 100 to 1000 nM | 100 to 1000 nM | 100 to 1000 nM |  | 
Cc1cn2cc(-n3cnc4cc(N5CCN(C)CC5)ccc4c3=O)cc(F)c2n1 [Compound 229] | > 10000 nM | > 10000 nM | > 10000 nM | > 10000 nM | > 10000 nM | > 10000 nM | > 10000 nM |  | 
Cc1cn2cc(-c3cc(F)c4c(=O)n(C5CCNCC5)cnc4c3)cc(F)c2n1 [Compound 230] | < 100 nM | < 100 nM | < 100 nM | < 100 nM | < 100 nM | < 100 nM | 100 to 1000 nM |  | 
Cc1cn2cc(-c3cc(F)c4c(=O)n(C5CCN(C)CC5)cnc4c3)cc(F)c2n1 [Compound 231, 5-fluoro-7-{8-fluoro-2-methylimidazo[1,2-a]pyridin-6-yl}-3-(1-methylpiperidin-4-yl)quinazolin-4-one] | 100 to 1000 nM | 100 to 1000 nM | 100 to 1000 nM | 100 to 1000 nM | 100 to 1000 nM | 100 to 1000 nM | 100 to 1000 nM |  | 
Cc1cc(-c2cc(F)c3c(=O)n(C4CCNCC4)cnc3c2)cc2cn(C)nc12 [Compound 232] | < 100 nM | < 100 nM | < 100 nM | < 100 nM | < 100 nM | < 100 nM | < 100 nM |  | 
Cc1cc(-c2cc(F)c3c(=O)n(C4CCN(C)CC4)cnc3c2)cc2cn(C)nc12 [Compound 233] | 100 to 1000 nM | 100 to 1000 nM | 100 to 1000 nM | 100 to 1000 nM | 100 to 1000 nM | 100 to 1000 nM | 100 to 1000 nM |  | 
Cc1cc(-c2ccc3c(=O)n(C4CCNCC4)cnc3c2F)cc2cn(C)nc12 [Compound 234] | 1000 to 10000 nM | 1000 to 10000 nM | 1000 to 10000 nM | 1000 to 10000 nM | 1000 to 10000 nM | 1000 to 10000 nM | 1000 to 10000 nM |  | 
Cc1cc(-c2ccc3c(=O)n(C4CCN(C)CC4)cnc3c2F)cc2cn(C)nc12 [Compound 235] | > 10000 nM | > 10000 nM | > 10000 nM | > 10000 nM | > 10000 nM | > 10000 nM | > 10000 nM |  | 
Cc1cn2cc(-c3ccc4c(=O)n(C5CCNC6(CC6)C5)cnc4c3)cc(F)c2n1 (centres unmarked) [Compound 236] | 100 to 1000 nM | 100 to 1000 nM | 100 to 1000 nM | 100 to 1000 nM | < 100 nM | 100 to 1000 nM | 100 to 1000 nM |  | 
Cc1cn2cc(-c3ccc4c(=O)n(C5CCNC(C)(C)C5)cnc4c3)cc(F)c2n1 (centres unmarked) [Compound 237] | 100 to 1000 nM | 100 to 1000 nM | 100 to 1000 nM | 100 to 1000 nM | 100 to 1000 nM | 100 to 1000 nM | 100 to 1000 nM |  | 
Cc1cn2nc(-n3cnc4cc(N5CCNCC5)ccc4c3=O)cc(C)c2n1 [Compound 241] | 1000 to 10000 nM | 1000 to 10000 nM | 1000 to 10000 nM | 1000 to 10000 nM | 1000 to 10000 nM | 1000 to 10000 nM | 1000 to 10000 nM |  | 
Cc1cn2nc(-c3cc(F)c4c(=O)n(C5CCN(C)CC5)cnc4c3)cc(C)c2n1 [Compound 242] | < 100 nM | < 100 nM | < 100 nM | < 100 nM | < 100 nM | < 100 nM | < 100 nM |  | 
Cc1cn2cc(-c3ncc4c(=O)n([C@H]5CCNC6(CC6)C5)ccc4n3)cc(F)c2n1 [Compound 1458, 6-[(7S)-4-azaspiro[2.5]octan-7-yl]-2-(8-fluoro-2-methyl-imidazo[1,2-a]pyridin-6-yl)pyrido[4,3-d]pyrimidin-5-one] | 100 to 1000 nM | 100 to 1000 nM |  |  | 100 to 1000 nM | < 100 nM | 100 to 1000 nM | 100 to 1000 nM | < 100 nM
Cc1c(O)c(-c2ncc3c(=O)n([C@H]4CC[C@H](N(C)C)CC4)ccc3n2)cc2cn(C)nc12 [Compound 1459, 6-((1r,4r)-4-(dimethylamino)cyclohexyl)-2-(6-hydroxy-2,7-dimethyl-2H-indazol-5-yl)pyrido[4,3-d]pyrimidin-5(6H)-one] | 100 to 1000 nM | 100 to 1000 nM |  |  | 100 to 1000 nM | < 100 nM | 100 to 1000 nM | 100 to 1000 nM | < 100 nM
Cc1c(O)c(-c2ncc3c(=O)n([C@H]4CC[C@@H](N(C)C)CC4)ccc3n2)cc2cn(C)nc12 [Compound 1460, 6-((1s,4s)-4-(dimethylamino)cyclohexyl)-2-(6-hydroxy-2,7-dimethyl-2H-indazol-5-yl)pyrido[4,3-d]pyrimidin-5(6H)-one] | 1000 to 10000 nM | 100 to 1000 nM |  |  | 100 to 1000 nM | 100 to 1000 nM | 100 to 1000 nM | 100 to 1000 nM | 100 to 1000 nM
Cc1c(O)c(-c2ncc3c(=O)n([C@H]4CCN[C@H](C)C4)ccc3n2)cc2cn(C)nc12 [Compound 1461, 2-(6-hydroxy-2,7-dimethyl-indazol-5-yl)-6-[(2R,4S)-2-methyl-4-piperidyl]pyrido[4,3-d]pyrimidin-5-one] | 100 to 1000 nM | 100 to 1000 nM |  |  | < 100 nM | < 100 nM | 100 to 1000 nM | 100 to 1000 nM | < 100 nM
Cc1c(O)c(-c2ncc3c(=O)n([C@@H]4CCN[C@@H](C)C4)ccc3n2)cc2cn(C)nc12 [Compound 1462, 2-(6-hydroxy-2,7-dimethyl-indazol-5-yl)-6-[(2S,4R)-2-methyl-4-piperidyl]pyrido[4,3-d]pyrimidin-5-one] | 100 to 1000 nM | 100 to 1000 nM |  |  | < 100 nM | < 100 nM | < 100 nM | 100 to 1000 nM | < 100 nM
